Columns and labels:
[1] = system: cells with inhibited respiratory complex I; assay: Screening assay 1: enhancement of mitochondrial energy producing function in cells with inhibited respiratory complex I; assay type: cell-based, human; parameters: key: (+): Brackets [( )] indicate an intermediate effect, i.e. (+++) is between ++ and +++; graded either +, ++ or +++ in increasing order of potency; (++): Brackets [( )] indicate an intermediate effect, i.e. (+++) is between ++ and +++; graded either +, ++ or +++ in increasing order of potency; (+++) is between ++ and +++; graded either +, ++ or +++ in increasing order of potency; conditions: screening assay 1, complex I inhibited with rotenone 2 μM
Description: (§1) Measurement of mitochondrial respirationise performed in a high-resolution oxygraph (Oxygraph-2k, Oroboros Instruments, Innsbruck, Austria) at a constant temperature of 37° C. Isolated human platelets, white blood cells, fibroblasts, human heart muscle fibers or other cell types containing live mitochondria are suspended in a 2 mL glass chamber at a concentration sufficient to yield oxygen consumption in the medium of 10 pmol O2 s^−1 mL^−1.
Cells are placed in a buffer containing 110 mM sucrose, HEPES 20 mM, taurine 20 mM, K-lactobionate 60 mM, MgCl2 3 mM, KH2PO4 10 mM, EGTA 0.5 mM, BSA 1 g/l, pH 7.1. […] Compounds dissolved in DMSO are titrated in a range of 10 μM to 10 mM final concentration. Subsequently, cell membranes are permeabilised with digitonin (1 mg/1*10^6 plt) to allow entry of extracellularly released energy substrate or cell impermeable energy substrates. After stabilized respiration, Succinate 10 mM is added as a reference to enable respiration downstream of complex I. After the respiration stabilized the experiment is terminated by addition of Antimycin at final concentration 1 μg/mL and any residual non-mitochondrial oxygen consumption is measured. An increase in respiration rate in the described protocol is tightly coupled to ATP synthesis by oxidative phosphorylation unless cells are uncoupled (i.e. proton leak without production of ATP). Uncoupling is tested for by addition of the ATP synthase inhibitor oligomycin (1-2 μg mL^−1) in a protocol 3 where the extent of uncoupling corresponds to the respiratory rate following oligomycin addition.

[2] = system: intact cells; assay: Screening assay 3: uncoupling in intact cells; for Uncoupling: level of oxygen consumption after addition of oligomycin: tested at 1000 µM; assay type: cell-based, human; parameters: key: (+): Brackets [( )] indicate an intermediate effect, i.e. (+++) is between ++ and +++; graded either +, ++ or +++ in increasing order of potency; (++): Brackets [( )] indicate an intermediate effect, i.e. (+++) is between ++ and +++; graded either +, ++ or +++ in increasing order of potency; (+++) is between ++ and +++; graded either +, ++ or +++ in increasing order of potency; conditions: for Uncoupling: level of oxygen consumption after addition of oligomycin: screening assay 3; for Convergent (Routine): increase in mitochondrial oxygen consumption: screening assay 3, 1 mM compound
Description: Measurement of mitochondrial respirationise performed in a high-resolution oxygraph (Oxygraph-2k, Oroboros Instruments, Innsbruck, Austria) at a constant temperature of 37° C. […] In the third protocol, the same buffer as described above is used. […] Subsequently, the ATP-synthase-inhibitor Oligomycin is added. A reduction in respiration is a measure of how much of the oxygen consumption that is coupled to ATP synthesis. No, or only a slight, reduction indicate that the compound is inducing a proton leak over the inner mitochondrial membrane. The uncoupler FCCP is then titrated to induce maximum uncoupled respiration. […] The experiment is terminated by the addition of 1 μg/mL of the complex III inhibitor Antimycin to measure non-mitochondrial oxygen consumption.

[3] = system: intact human blood cells with inhibited complex I in human plasma; assay: Screening assay 4: cells with inhibited respiratory complex I in human plasma; assay type: cell-based; parameters: key: (+): Brackets [( )] indicate an intermediate effect, i.e. (+++) is between ++ and +++; graded either +, ++ or +++ in increasing order of potency; (++): Brackets [( )] indicate an intermediate effect, i.e. (+++) is between ++ and +++; graded either +, ++ or +++ in increasing order of potency; (+++) is between ++ and +++; graded either +, ++ or +++ in increasing order of potency; conditions: screening assay 4, complex I inhibited
Description: Measurement of mitochondrial respirationise performed in a high-resolution oxygraph (Oxygraph-2k, Oroboros Instruments, Innsbruck, Austria) at a constant temperature of 37° C. […] Intact human blood cells are incubated in plasma from the same donor. […] The experiment is terminated by addition of Antimycin at final concentration 1 μg/mL and any residual non-mitochondrial oxygen consumption is measured.

[4] = system: intact cells; assay: Screening assay 2: enhancement and inhibition of mitochondrial energy producing function in intact cells (FCCP); assay type: cell-based, human; parameters: key to Convergent (FCCP): increase in mitochondrial oxygen consumption: (+): Brackets [( )] indicate an intermediate effect, i.e. (+++) is between ++ and +++; graded either +, ++ or +++ in increasing order of potency; (++): Brackets [( )] indicate an intermediate effect, i.e. (+++) is between ++ and +++; graded either +, ++ or +++ in increasing order of potency; (+++) is between ++ and +++; graded either +, ++ or +++ in increasing order of potency; conditions: for Toxicity: lowest concentration during compound titration at which a decrease in oxygen consumption is seen: screening assay 2; for Convergent (FCCP): increase in mitochondrial oxygen consumption: screening assay 2, uncoupled conditions
Description: as §1
In the second protocol the same buffer is used as described above. After basal respiration is established, the mitochondrial uncoupler FCCP is added at a concentration of 2 nM to increase metabolic demand.

Row | Compound | CII: increase in mitochondrial oxygen consumption [1] | Uncoupling: level of oxygen consumption after addition of oligomycin [2] | Convergent (Routine): increase in mitochondrial oxygen consumption [2] | CII (plasma): increase in mitochondrial oxygen consumption [3] | Toxicity: lowest concentration during compound titration at which a decrease in oxygen consumption is seen [4] [mM] | Convergent (FCCP): increase in mitochondrial oxygen consumption [4]
1 | CCC(=O)N[C@@H](CSC(=O)CCC(=O)O)C(=O)O [Compound 01-041, (R)-4-(2-carboxy-2-propionamidoethylthio)-4-oxobutanoic acid] | ++ | (+) | + | + | 5 | +++
2 | CC(=O)NCCSC(=O)CCC(=O)O [Compound 01-108, 4-(2-acetamidoethylthio)-4-oxobutanoic acid] | (++) | + | ++ | (+) | 10 | ++
3 | CCC(=O)NCCSC(=O)CCC(=O)O [Compound 01-114, 4-oxo-4-(2-propionamidoethylthio)butanoic acid] | ++ | (+) | +++ | + | 10 | ++
4 | CC(=O)OC(CCCOC(=O)CCC(=O)O)OC(=O)CCC(=O)O (stereo not drawn) [Compound 01-134] | (+) | (+) | ++ | (+) | 10 | (+)
5 | CC(=O)OC(CCCN1C(=O)c2ccccc2C1=O)OC(=O)CCC(=O)O (stereo not drawn) [Compound 01-150, 4-(1-acetoxy-4-(1,3-dioxoisoindolin-2-yl)butoxy)-4-oxobutanoic acid] | ++ | (+) | +++ | (+) | 2 | +
6 | CCC(=O)N[C@@H](CSC(=O)CCC(=O)SC[C@H](NC(=O)CC)C(=O)N(CC)CC)C(=O)N(CC)CC [Compound 01-185, S,S-bis((R)-3-(diethylamino)-3-oxo-2-propionamidopropyl) butanebis(thioate)] | + | (+) | (+) | + | 2 | +
7 | CC(=O)NCC(C)(C)SC(=O)CCC(=O)O [Compound 01-188, 4-(1-acetamido-2-methylpropan-2-ylthio)-4-oxobutanoic acid] | + | (+) | +++ | + | 5 | +++
8 | CCN(CC)C(=O)COCCSC(=O)CCC(=O)O [Compound 01-193, 4-(2-(2-(diethylamino)-2-oxoethoxy)ethylthio)-4-oxobutanoic acid] | + | + | (++) | (+) | 5 | +

From patent US10307389B2, “Succinate prodrugs for use in the treatment of lactic acidosis or drug-induced side-effects due to Complex I-related impairment of mitochondrial oxidative phosphorylation” (NEUROVIVE PHARMACEUTICAL AB, priority 2014, dated 2019)
